{"source": "patent US10844052B2", "about": "“LLS compounds for treatment of cancer” (THE REGENTS OF THE UNIVERSITY OF CALIFORNIA, priority 2016, dated 2020)", "key": {"[1]": {"test": "Combination of LLS30 with Enzalutamide", "format": "cell-based"}, "[2]": {"system": "sNF2.2 malignant peripheral nerve sheath tumor (MPNST) cells", "test": "Cytotoxicity and PTX combination on sNF2.2 MPNST cells", "format": "cell-based", "method": "(§1) The biochemical and biological effects of LLS30 on sNF96.2 and sNF2.2 malignant peripheral nerve sheath tumor (MPNST) cells were evaluated."}, "ERK phosphorylation": {"system": "ERK phosphorylation", "test": "Phosphorylation of ERK / MEK/ERK pathway in MPNST cells", "format": "cell-based", "method": "(b) LLS30 exerts death on MPNST cells.\nas §1"}, "SKOV3": {"system": "SKOV3", "test": "Anti-cancer activity against ovarian cancer cells SKOV3 (cell killing in solution / in vitro cell proliferation)", "format": "cell-based", "method": "(§2) Biotinylated LLS2 was synthesized in solution and loaded it onto a streptavidin-coated plate. The biotinylated LLS2 immobilized on the plate killed approximately 21% of SKOV3 ovarian cancer cells at 100 μM loading, 16% at 50 μM and 14% at 25 μM (FIG. 4). The killing effect of the LLS2 compound was also tested in solution. […] In addition, LLS2 can kill pancreatic cancer cell line XPA3, prostate cancer cell line PC3, colon cancer cell line HT29, breast cancer cell line MCF7 and lung cancer cell line A549 (FIG. 4)."}, "[3]": {"system": "PC3 prostate cancer cells", "test": "Cell viability of prostate cancer PC3 cells after 72 hours treatment", "format": "cell-based", "details": "Homo sapiens", "method": "Effects of compounds LLS42-LLS80 on the viability of PC3 prostate cancer cells after 72 hours of treatment are shown in Table 2 below: […]"}, "PC3 tumor": {"system": "PC3 tumor", "test": "In vivo efficacy study of LLS30 on PC3 tumor"}, "[4]": {"system": "22RV1 prostate cancer cells", "test": "Cell viability of prostate cancer 22RV1 cells after 72 hours treatment", "format": "cell-based", "details": "Homo sapiens"}, "[5]": {"system": "sNF96.2 malignant peripheral nerve sheath tumor (MPNST) cells", "test": "Cytotoxicity against sNF96.2 MPNST cells", "format": "cell-based", "method": "as §1"}, "PC3": {"system": "PC3", "test": "In vitro cell proliferation / killing assay on PC3 prostate cancer cells", "format": "cell-based", "details": "Homo sapiens, PC-3", "method": "as §2"}}}
{"smiles": "NC(=O)CC(NCc1ccc(Cl)c(Cl)c1)c1ccc2c(c1)nc(-c1ccc(N(CCO)CCO)cc1)n2Cc1ccc(Cl)c(Cl)c1", "note": "(stereo not shown) [LLS30, 3-(2-(4-(bis(2-hydroxyethyl)amino)phenyl)-1-(3,4-dichlorobenzyl)-1H-benzo[d]imidazol-5-yl)-3-((3,4-dichlorobenzyl)amino)propanamide]", "values": [{"measurement": "anti-cancer effect in combination with Enzalutamide", "setting": "[1]", "value": "synergistic anti-cancer effect"}, {"measurement": "IC50", "setting": "[2]", "value": 26, "unit": "µM"}, {"measurement": "C.I. (combination index) with PTX", "setting": "[2]; LLS30 with PTX", "value": 0.1}, {"measurement": "MEK/ERK pathway", "setting": "ERK phosphorylation; 2 μM, MPNST cells (FIG. 12 legend)", "value": "suppresses"}, {"measurement": "Phosphorylation of ERK", "setting": "ERK phosphorylation; 24 hrs treatment, 25 μM, MPNST cells", "value": "totally suppressed"}, {"measurement": "IC50", "setting": "SKOV3; Homo sapiens, SK-OV-3, ovarian cancer cells SKOV3", "value": 10.2, "unit": "µM"}, {"measurement": "potency relative to LLS2", "setting": "SKOV3; in vitro cell proliferation assays", "value": "about 2 fold"}, {"measurement": "viability at 2.5 µM", "setting": "[3]; PC-3, 2.5 μM", "value": 100, "unit": "%"}, {"measurement": "viability at 5 µM", "setting": "[3]; PC-3, 5 μM", "value": 95, "unit": "%"}, {"measurement": "viability at 10 µM", "setting": "[3]; PC-3, 10 μM", "value": 73, "unit": "%"}, {"measurement": "viability at 20 µM", "setting": "[3]; PC-3, 20 μM", "value": 10, "unit": "%"}, {"measurement": "growth of PC3 tumor", "setting": "PC3 tumor; 10 mg/kg, i.v. q3d×4", "value": "significantly suppressed"}, {"measurement": "Ki-67 in tumor", "setting": "PC3 tumor; LLS30-treated tumor", "value": "down-regulated"}, {"measurement": "cleaved caspase-3 in tumor", "setting": "PC3 tumor; LLS30-treated tumor", "value": "more cleaved caspase-3 positive cells"}, {"measurement": "PC3 tumor response, combination with PTX", "setting": "PC3 tumor; LLS30 with PTX, i.v. q3d×4", "value": "tumor regression"}, {"measurement": "CBC, platelets, liver function tests and renal panel", "setting": "PC3 tumor; after 4 courses of treatment", "value": "remained within normal limits"}, {"measurement": "histological analysis of the resected tumor", "setting": "PC3 tumor; necrotic cells", "value": "many necrotic cells were present"}, {"measurement": "viability at 2.5 µM", "setting": "[4]; 2.5 μM", "value": 47, "unit": "%"}, {"measurement": "viability at 5 µM", "setting": "[4]; 5 μM", "value": 3, "unit": "%"}, {"measurement": "viability at 10 µM", "setting": "[4]; 10 μM", "value": 0, "unit": "%"}, {"measurement": "IC50", "setting": "[5]", "value": 16, "unit": "µM"}, {"measurement": "IC50", "setting": "PC3", "value": 9.2, "unit": "µM"}]}
